Assay results from patent US12662491B2 (Redona Therapeutics, Inc., priority 2020, dated 2026).

These compounds were tested against T1, Zcchc11 enzyme (Homo sapiens, UniProt Q5TAX3) (assay: TUTase assay (Zcchc11 assay, Lin28a-dependent polyuridylation of pre-let-7)). Conditions: LIN28A 10 nM, Zcchc11 0.2 nM, 5′-fluorescein pre-let-7 miRNA 2 nM, UTP 5 uM, room temperature, 30 minutes pre-incubation; read-out: Potency Lin28a-dep Z11 IC50.
T1 construct: made in house; host or cells: HEK293 cells (Zcchc11); E. coli Rosetta II (LIN28A)
T1 sequence (Q5TAX3 212-1420): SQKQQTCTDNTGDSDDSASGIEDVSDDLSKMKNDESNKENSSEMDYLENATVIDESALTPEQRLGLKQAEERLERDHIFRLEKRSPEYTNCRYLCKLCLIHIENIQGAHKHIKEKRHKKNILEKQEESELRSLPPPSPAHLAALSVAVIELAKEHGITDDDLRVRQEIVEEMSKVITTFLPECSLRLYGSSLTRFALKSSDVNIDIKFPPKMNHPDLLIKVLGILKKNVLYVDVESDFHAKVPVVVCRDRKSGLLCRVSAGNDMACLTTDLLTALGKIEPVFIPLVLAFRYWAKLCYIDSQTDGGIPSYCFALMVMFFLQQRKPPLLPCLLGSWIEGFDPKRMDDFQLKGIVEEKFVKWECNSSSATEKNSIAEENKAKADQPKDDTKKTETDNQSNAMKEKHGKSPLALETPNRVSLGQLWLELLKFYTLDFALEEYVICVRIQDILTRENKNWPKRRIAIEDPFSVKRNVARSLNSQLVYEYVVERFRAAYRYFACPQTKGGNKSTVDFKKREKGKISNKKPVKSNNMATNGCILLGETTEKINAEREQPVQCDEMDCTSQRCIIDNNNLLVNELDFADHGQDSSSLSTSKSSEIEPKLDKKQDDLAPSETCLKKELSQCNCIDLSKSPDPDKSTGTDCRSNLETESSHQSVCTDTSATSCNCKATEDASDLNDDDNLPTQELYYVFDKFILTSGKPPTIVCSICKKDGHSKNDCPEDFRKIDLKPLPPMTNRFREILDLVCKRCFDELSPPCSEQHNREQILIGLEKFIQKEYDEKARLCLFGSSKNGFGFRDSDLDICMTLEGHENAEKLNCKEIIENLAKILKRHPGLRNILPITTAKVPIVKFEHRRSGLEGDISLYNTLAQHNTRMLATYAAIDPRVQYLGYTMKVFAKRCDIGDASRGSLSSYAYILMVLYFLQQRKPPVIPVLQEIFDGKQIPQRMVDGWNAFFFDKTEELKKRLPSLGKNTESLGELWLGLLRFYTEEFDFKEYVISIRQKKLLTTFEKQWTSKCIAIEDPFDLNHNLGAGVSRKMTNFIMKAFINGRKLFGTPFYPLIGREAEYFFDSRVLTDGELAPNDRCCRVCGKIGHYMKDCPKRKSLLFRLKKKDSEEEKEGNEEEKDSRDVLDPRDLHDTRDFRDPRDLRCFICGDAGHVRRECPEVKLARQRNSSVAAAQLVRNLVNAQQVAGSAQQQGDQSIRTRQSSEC
Assay type: biochemical
Procedure, shortened: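 Readout: time-dependent quench of 5′-fluorescein pre-let-7 (2 nM) as 3′-rhodamine A20 probe anneals to poly(U) tails. Enzyme 0.2 nM Zcchc11 (res. 212-1420), LIN28A 10 nM, UTP 5 uM; pH 7.3 HEPES, 150 mM KCl, 5 mM MgCl2, RT. 4-parameter IC50; 100% = DMSO, 0% = no UTP.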

Row | IC50 | Compound
1 | 1000 to 10000 nM | CC(=O)N1CC(n2cc(C(=O)O)c(=O)c3cc(Cl)c(N4CCC[C@@H]4COc4ncccc4C)cc32)C1 [Example 36, 1-(1-Acetylazetidin-3-yl)-6-chloro-7-[(2R)-2-{[(3-methylpyridin-2-yl)oxy]methyl}pyrrolidin-1-yl]-4-oxo-1,4-dihydroquinoline-3-carboxylic acid]
2 | ≤ 1000 nM | CN(C)C1CN(c2ccc(-n3cc(C(=O)O)c(=O)c4cc(Cl)c(N5CC(F)(F)C[C@@H]5COc5ncccc5Cl)nc43)cn2)C1 [Example 60, 6-chloro-7-[(2R)-2-[[(3-chloropyridin-2-yl)oxy]methyl]-4,4-difluoropyrrolidin-1-yl]-1-[6-[3-(dimethylamino)azetidin-1-yl]pyridin-3-yl]-4-oxo-1,8-naphthyridine-3-carboxylic acid]
3 | ≤ 1000 nM | Cc1cccnc1OC[C@H]1CCCN1c1cc2c(cc1F)c(=O)c(C(=O)O)cn2-c1cnccn1 [Example 15, (R)-6-fluoro-7-(2-(((3-methylpyridin-2-yl)oxy)methyl)pyrrolidin-1-yl)-4-oxo-1-(pyrazin-2-yl)-1,4-dihydroquinoline-3-carboxylic acid]

Same assay, conditions: Lin28a-dependent Zcchc11 (Z11) TUTase activity; read-out: Potency Lin28a-dep Z11 IC50

Row | IC50 | Compound
4 | ≤ 1000 nM | CN(C)C1CN(c2ccc(-n3cc(C(=O)O)c(=O)c4cc(Cl)c(N5CCC5COc5ncccc5Cl)cc43)cn2)C1 (centres unmarked) [Compound 184, 6-chloro-7-(2-(((3-chloropyridin-2-yl)oxy)methyl)azetidin-1-yl)-1-(6-(3-(dimethyl-amino)azetidin-1-yl)pyridin-3-yl)-4-oxo-1,4-dihydro-quinoline-3-carboxylic acid formic acid]
5 | ≤ 1000 nM | COc1ccc(F)c(OC[C@H]2C[C@H]3C[C@H]3N2c2cc3c(cc2F)c(=O)c(C(=O)O)cn3-c2ccnc(N)c2)n1 (racemic) [Compound 235, Rac-1-(2-aminopyridin-4-yl)-6-fluoro-7-((1R,3R,5R)-3-(((3-fluoro-6-methoxy-pyridin-2-yl)oxy)methyl)-2-azabicyclo [3.1.0]hexan-2-yl)-4-oxo-1,4-dihydro-quinoline-3-carboxylic acid]
6 | 1000 to 10000 nM | O=C(O)c1cn(C2CC2)c2cc(N3CCC[C@@H]3COc3ccccn3)c(F)cc2c1=O [Compound 87, (R)-1-cyclopropyl-6-fluoro-4-oxo-7-(2-((pyridin-2-yloxy)methyl)pyrrolidin-1-yl)-1,4-dihydro-quinoline-3-carboxylic acid]
7 | ≤ 1000 nM | Cc1nn(C)cc1-n1cc(C(=O)O)c(=O)c2cc(Cl)c(N3CCC[C@@H]3COc3ncccc3Cl)cc21 [Compound 168, (R)-6-chloro-7-(2-(((3-chloropyridin-2-yl)oxy)methyl)pyrrolidin-1-yl)-1-(1,3-dimethyl-1H-pyrazol-4-yl)-4-oxo-1,4-dihydro-quinoline-3-carboxylic acid]
8 | ≤ 1000 nM | Nc1ccc(-n2cc(C(=O)O)c(=O)c3cc(F)c(N4CCC[C@@H]4COc4ncccc4F)cc32)cn1 [Compound 316, 1-(6-Aminopyridin-3-yl)-6-fluoro-7-[(2R)-2-[[(3-fluoropyridin-2-yl)oxy]methyl]pyrrolidin-1-yl]-4-oxoquinoline-3-carboxylic acid]
9 | ≤ 1000 nM | CN(C)C1CN(c2ccc(-n3cc(C(=O)O)c(=O)c4cc(Cl)c(N5CC(c6ncccn6)C[C@@H]5COc5ncccc5Cl)cc43)cn2)C1 (stereo partly drawn) [Compound 346, 6-chloro-7-((2R)-2-(((3-chloropyridin-2-yl)oxy)methyl)-4-(pyrimidin-2-yl)pyrrolidin-1-yl)-1-(6-(3-(dimethyl-amino)azetidin-1-yl)pyridin-3-yl)-4-oxo-1,4-dihydro-quinoline-3-carboxylic acid]
10 | 1000 to 10000 nM | O=C(O)c1cn(-c2cnccn2)c2nc(N3CCC[C@@H]3COc3nnccc3Cl)c(Cl)cc2c1=O (racemic) [Compound 193, rac-(R)-6-chloro-7-(2-(((4-chloro-pyridazin-3-yl)oxy)methyl)pyrrolidin-1-yl)-4-oxo-1-(pyrazin-2-yl)-1,4-dihydro-1,8-naphthyridine-3-carboxylic acid]
11 | ≤ 1000 nM | CO/N=C1/CCN(c2cc3c(cc2Cl)c(=O)c(C(=O)O)cn3-c2ccc(N3CC(N(C)C)C3)nc2)C1COc1nc(OC)ccc1Cl (centres unmarked) [Compound 232, (Z)-6-chloro-7-(2-(((3-chloro-6-methoxy-pyridin-2-yl)oxy)methyl)-3-(methoxyimino)pyrrolidin-1-yl)-1-(6-(3-(dimethyl-amino)azetidin-1-yl)pyridin-3-yl)-4-oxo-1,4-dihydro-quinoline-3-carboxylic acid]
12 | ≤ 1000 nM | CN(C)C1CN(c2ccc(-n3cc(C(=O)O)c(=O)c4cc(Cl)c(N5CC(c6ccccn6)C[C@@H]5COc5ncccc5Cl)cc43)cn2)C1 (mixture of isomers) [Compound 315, rac-6-chloro-7-((2R)-2-(((3-chloropyridin-2-yl)oxy)methyl)-4-(pyridin-2-yl)pyrrolidin-1-yl)-1-(6-(3-(dimethyl-amino)azetidin-1-yl)pyridin-3-yl)-4-oxo-1,4-dihydro-quinoline-3-carboxylic acid]
13 | ≤ 1000 nM | O=C(O)c1cn(-c2ccc(Cl)c(O)c2)c2cc(N3CCC[C@@H]3COc3ncccc3Cl)c(Cl)cc2c1=O [Compound 126, (R)-6-chloro-1-(4-chloro-3-hydroxy-phenyl)-7-(2-(((3-chloropyridin-2-yl)oxy)methyl)pyrrolidin-1-yl)-4-oxo-1,4-dihydro-quinoline-3-carboxylic acid]

Same assay, conditions: Lin28a-dependent Zcchc11 (Z11) TUTase assay; read-out: Potency Lin28a-dep Z11 IC50

Row | IC50 | Compound
14 | ≤ 1000 nM | Cc1nc(N2CC(N(C)C)C2)ccc1-n1cc(C(=O)O)c(=O)c2cc(Cl)c(N3CCC[C@@H]3COc3ncccc3Cl)cc21 [Example 584, (R)-6-chloro-7-(2-(((3-chloropyridin-2-yl)oxy)methyl)pyrrolidin-1-yl)-1-(6-(3-(dimethylamino)azetidin-1-yl)-2-methylpyridin-3-yl)-4-oxo-1,4-dihydroquinoline-3-carboxylic acid]
15 | ≤ 1000 nM | Nc1cnc(-n2cc(C(=O)O)c(=O)c3cc(Cl)c(N4CCC[C@@H]4COc4ncccc4Cl)cc32)cn1 [Example 483, 1-(5-aminopyrazin-2-yl)-6-chloro-7-[(2R)-2-{[(3-chloropyridin-2-yl)oxy]methyl}pyrrolidin-1-yl]-4-oxo-1,4-dihydroquinoline-3-carboxylic acid]
16 | ≤ 1000 nM | CN(C)C1CN(c2ccc(-n3cc(C(=O)O)c(=O)c4cc(Cl)c(N5CCC[C@@H]5CCOc5ccccn5)cc43)cn2)C1 [Example 591, (R)-6-chloro-1-(6-(3-(dimethylamino)azetidin-1-yl)pyridin-3-yl)-4-oxo-7-(2-(2-(pyridin-2-yloxy)ethyl)pyrrolidin-1-yl)-1,4-dihydroquinoline-3-carboxylic acid]
17 | ≤ 1000 nM | O=C(O)c1cn(-c2cnc3[nH]ncc3n2)c2cc(N3CCC[C@@H]3COc3ncccc3Cl)c(Cl)cc2c1=O [Example 549, (R)-6-chloro-7-(2-(((3-chloropyridin-2-yl)oxy)methyl)pyrrolidin-1-yl)-4-oxo-1-(1H-pyrazolo[3,4-b]pyrazin-5-yl)-1,4-dihydroquinoline-3-carboxylic acid]
18 | 1000 to 10000 nM | Cc1cc(-n2cc(C(=O)O)c(=O)c3cc(F)c(N4CCC[C@@H]4COc4ccccn4)cc32)ccc1O [Example 395, (R)-6-fluoro-1-(4-hydroxy-3-methylphenyl)-4-oxo-7-(2-((pyridin-2-yloxy)methyl)pyrrolidin-1-yl)-1,4-dihydroquinoline-3-carboxylic acid]
19 | 1000 to 10000 nM | CC(=O)NC1CCC(n2cc(C(=O)O)c(=O)c3cc(F)c(N4CCC[C@@H]4COc4ccccn4)cc32)CC1 (stereo partly drawn) [Example 358, 1-(4-acetamidocyclo-hexyl)-6-fluoro-4-oxo-7-[(2R)-2-[(pyridin-2-yloxy)methyl]pyrrolo-1-yl]-1,4-dihydroquinoline-3-carboxylic acid]
20 | ≤ 1000 nM | Cn1cnc(-n2cc(C(=O)O)c(=O)c3cc(Cl)c(N4CCC[C@@H]4COc4ncccc4Cl)cc32)c1 [Example 566, (R)-6-chloro-7-(2-(((3-chloropyridin-2-yl)oxy)methyl)pyrrolidin-1-yl)-1-(1-methyl-1H-imidazol-4-yl)-4-oxo-1,4-dihydroquinoline-3-carboxylic acid]
